We go through 87 compounds from a melting point compilation (Tetko et al.; mined from patent text by program, amines drawn as free bases though some values may be those of a salt).

Each structure is given as a SMILES string.

Turning to `FC(F)(F)c1cccc(CCc2nnc(-c3ccc4ncoc4c3)o2)c1`, the melting point lay within 117 to 118 °C.
For `CCN(CC)c1ccc2nc3c4ccccc4c(=Nc4cccnc4)cc-3oc2c1` the value was 198 to 199 °C; for `COc1ccccc1NC(=O)Nc1nc(NCCc2ccc(O)cc2)nc(Oc2ccc3ccccc3c2)n1`, 238 °C; for `CC(C)(CCCc1cccnc1)NC(=O)/C=C/C=C(c1ccc(F)cc1)c1ccc(F)cc1`, 164 °C.
For the compound `CCN(CC)c1ccc2nc3c4ccccc4c(=Nc4ccccn4)cc-3oc2c1`, the melting point was 169 to 170 °C.
Compound `NS(=O)(=O)c1ccc(-n2nc(C(F)(F)F)cc2-c2ccc(-c3cscn3)c(O)c2)cc1F` gave a melting point of 224 to 226 °C.
As to `CCCCCCCCCCCC(=O)NC(=O)OCc1nc(C(C)C)c(Sc2cc(Cl)cc(Cl)c2)n1CC`, the melting point lay in the range of 100 to 102 °C.
Consider `CC(C)C[C@H](NC(=O)OCc1ccccn1)C(=O)N[C@@H](Cc1ccccc1)C(=O)CSCc1ccco1`, for which the melting point fell in the range of 93 to 94 °C.
`O=C(O)CCCCCCCn1c(-c2ccc(O)cc2)nc(-c2ccccc2)c1-c1ccccc1` yielded a melting point of 167 °C.
`CCOC(=O)CC[C@H](NC(=O)c1ccc(C(COC2CCCCO2)CC2CNc3nc(NC(=O)C(C)(C)C)nc(O)c3C2)cc1)C(=O)OCC` (some centres not stated) registered a melting point of 183 to 186 °C.
For `CC(=O)Nc1nn(C)c2nc3n(c(=O)c12)CCS3`, the melting point was 250 to 252 °C.
With `CC(=O)Nc1cc(C(F)(F)F)cc(C(F)(F)F)c1[N+](=O)[O-]`, the melting point fell in the range of 190 to 192 °C.
`CCCCN(N=Nc1[nH]cnc1C(N)=O)C(C)=N` came in with a melting point of 191 °C.
The value for `COc1ccc(CCNS(=O)(=O)Cc2ccc3[nH]cc(CCN(C)C)c3c2)cc1` was 67 to 70 °C; that for `N#CCN1CCC(N2CCN(CCCN3CCCCC3)C2=C(C#N)C#N)CC1` was 135 to 136 °C; that for `CC1(C)CCc2c(ccc3c2C(=O)C=C(O)C3=O)O1` was 184 to 187 °C.
Compound `CCCCCN(C(=O)Oc1ccc(C(=O)O)cc1)c1ccc2c(c1)C(C)(C)CCC2(C)C` returned a melting point of 100 to 102 °C.
Regarding `Nc1nc2c(s1)CCN(C(=O)c1ccc(NC(=O)c3ccccc3-c3ccccc3)cc1)c1ccccc1-2`, the melting point is > 250 °C.
On to `O=C(Cc1ccncc1)NC1CCCCC1`, for which the melting point is 147 to 148 °C.
The compound `C=CCc1ccccc1OC[C@@H](O)CNCCc1ccc(NC2CCN(S(=O)(=O)c3ccc(N(CCCCCC)C(N)=O)cc3)CC2)cc1` had a melting point of 68 to 70 °C.
Turning to `CCC(=O)C1=C(O)CC(c2cccc(O)c2)CC1=O` (configuration not stated), the melting point lay in the range of 124 to 131 °C.
Regarding `O=C1c2ccccc2C(=O)c2oc(-c3ccc(Cl)cc3)nc21`, the melting point was > 260 °C.
As for `Cc1oc2c(C)c(C)c(OCc3ccccc3)c(C)c2c1CN1CCC[C@H]1CO`, the melting point is 98 to 100 °C.
The value for `Cc1ccc(Cn2c(=O)[nH]c3cc(Cl)cc(Cl)c3c2=O)cc1` was 210 to 218 °C; that for `Cn1c2c(c(=O)n(-c3ccc(Cl)c(C(=O)OC(C)(C)C)c3)c1=O)CCC2` was 189 to 191 °C.
Turning to `COc1ccc(-n2nc(Sc3cc(C)ccc3C)c(C)c(C#N)c2=O)cc1`, the melting point lay within 140 to 142 °C.
Compound `N#Cc1cccc2c1CCc1cc(C(F)(F)F)ccc1S2` registered a melting point of 113 to 114 °C.
`N#Cc1ccc(Nn2cnnc2)cc1-c1ccoc1` gave a melting point of 199 to 200 °C.
On to `C=C(C)C(=O)OCCCCCCN(C)c1ccc(C=Cc2ccc([N+](=O)[O-])cc2)cc1`, for which the melting point was in the range of 109 to 111 °C.
Regarding `CCOC(=O)C1=C(C)NC(c2cscn2)=NC1c1ccc(F)cc1` (configuration not stated), the melting point was 118 to 120 °C.
As for `COCOC1CCN(c2ccc(NC(=O)c3cnn(-c4ccc(Cl)cc4)c3C)cc2C#N)CC1`, the melting point is 186 to 188 °C.
Take `O=C1CC2CCc3cc(O)ccc3C2=NN1c1ccccn1` (configuration not stated): the melting point lay in the range of 193 to 194 °C.
Consider `Cc1c(-c2ccccc2Cl)sc2nc(N)[nH]c(=O)c12`, for which the melting point lay within 334 to 336 °C.
For `COc1ccc2c(c1)OC(CN)C2` (configuration not stated), the melting point is > 220 °C.
Consider `CCOC(=O)/C=C/c1ccc(OCCOCCOC)cc1Oc1ncc(C(F)(F)F)cc1Cl`, for which the melting point is 76.6 to 76.8 °C.
Compound `CC(C)=CCc1c(O)ccc(C(=O)C=Cc2ccccc2)c1O` gave a melting point of 131 to 132 °C.
As for `Cc1c(C(=O)c2cccc(C(F)(F)F)c2)oc2c(Br)cccc12`, the melting point was in the range of 97 to 98 °C.
On to `Cc1cc(SC(C)C)c(NC(=O)CCCCCCSc2nc3ccccc3[nH]2)c(SC(C)C)n1`, for which the melting point lay in the range of 118 to 121 °C.
Consider `O=C(O)CCCCOc1ccc2oc3ccccc3c(=O)c2c1`, for which the melting point lay in the range of 151 to 152 °C.
`Nc1nc(Nc2ccccc2)sc1C(=O)c1cccs1` yielded a melting point of 84 to 85 °C.
`Cc1nc(N(Cc2ccccc2)Cc2ccccc2)c2nc(Cc3ccccc3)n(CCc3ccccc3)c2c1C` showed a melting point of 139 to 141 °C.
The value for `O=[N+]([O-])c1ccc(OS(=O)(=O)c2cccnc2Cl)cc1` was 127 to 128 °C.
Compound `CC(C)(C)CC(C)(C)c1ccc(Oc2cc3nc(C(C)(C)C)oc3cc2[N+](=O)[O-])cc1` yielded a melting point of 77 to 78 °C.
The value for `c1cncc(CCCN2CCc3[nH]c4ccccc4c3C2)c1` was 223 to 225 °C; that for `CC(C)Oc1nc(N)nc2ccc(-c3ccc(F)cc3)nc12` was 191 to 192 °C; that for `COc1ccc2cc(-c3ccc(S(C)=O)cc3)ccc2n1` (configuration not stated) was 164 to 166 °C.
In the case of `COC(=O)C(C)(C)Nc1nc(Cl)ccc1[N+](=O)[O-]`, the melting point was 96 to 97 °C.
Consider `COc1cc(C=NNC2=NCCc3ccccc32)cc(OC)c1O`, for which the melting point was 232 to 233 °C.
Compound `Cc1cc(SCc2ccc(-c3ccc(C(F)(F)F)cn3)cc2)c2c(c1OCC(=O)O)CCO2` registered a melting point of 94 to 95 °C.
For the compound `CN1CCN(CCC/C=C/c2ccc3c(Nc4ccc(Sc5nccn5C)c(Cl)c4)c(C#N)cnc3c2)CC1`, the melting point is 219 to 227 °C.
In turn, `CCOC(=O)/C=C/c1ccc(N2CCC(=O)CC2)cc1` registered a melting point of 96 to 98 °C.
Regarding `CCOc1ccc([N+](=O)[O-])cc1OC`, the melting point lay in the range of 88 to 90 °C.
The compound `CC1(C)CCc2ccc(OCCCCN3CCN(c4cccc(Cl)c4Cl)CC3)cc2NC1=O` displayed a melting point of 110 to 112 °C.
Compound `Cn1nnc2sccc2c1=O` showed a melting point of 104 to 108 °C.
`CCOC(=O)CCNC(=O)c1n[nH]cc1NC(=O)c1cccc(C)n1` returned a melting point of 228 to 229 °C.
The value for `CC(CO)NC1=NS(=O)(=O)c2cnccc2N1` (configuration not stated) was 213 to 216 °C; that for `Cc1nc2c(O)cccn2c(=O)c1CCN1CCC(c2noc3cc(F)ccc23)CC1` was 288 °C.
`O=C(c1cccs1)N(CCCCn1ccnc1)C1=Nc2cccc3cccc1c23` returned a melting point of 76 to 80 °C.
The value for `Nc1nc(NCCNCC(O)COc2ccccc2)c2[nH]cnc2n1` (configuration not stated) was 169 to 171 °C.
For `COc1ccc(CN2C(=O)C(C)(c3ccc(F)cc3Cl)c3cc(Cl)ccc32)c(OC)c1` (configuration not stated), the melting point was determined as 166 °C.
Compound `Nc1ccc(OC(F)(F)F)c(-c2nc3ccccc3o2)c1` yielded a melting point of 133 to 135 °C.
The compound `C=CCOCc1c(CN(C)C[C@@H](O)c2ccccn2)sc2c(=O)c(C(=O)NCc3ccc(Cl)cc3)cn(C)c12` had a melting point of 125 to 127 °C.
The compound `CCCCOc1ccc(-c2ccc(-c3ccc(-c4ccc(-c5ccc(OCCCC)cc5)s4)c4nsnc34)s2)cc1` yielded a melting point of 330 to 331 °C.
Consider `CCOC(=O)C(C)Oc1ccc(Nc2ccc(C(F)(F)F)cc2N)cc1` (configuration not stated), for which the melting point came out at 78 °C.
For `Clc1ccc(-c2nnc(Cl)s2)cc1` the value was 125 to 127 °C; for `CC(=O)CCc1cccc(C(N)=O)c1`, 122 to 125 °C; for `CNC(=O)OC(C)C(=O)Nc1ccc(C2=NNC(=O)CC2C)cc1` (configuration not stated), 96 to 98 °C.
In turn, `CCCNC(=O)C(O)C1c2ccccc2C(=O)N1c1ccc2ccc(C)nc2n1` (configuration not stated) displayed a melting point of 128 to 130 °C.
For `COc1ccc(C(=O)Nc2cc(C(=O)NCc3ccccc3)ccn2)cc1` the value was 165 to 166 °C; for `CCN(CC)Cc1ccc2[nH]c(-c3ccccc3)cc(=O)c2c1`, 228 to 230 °C.
Compound `NS(=O)(=O)c1ccc(-c2[nH]c3ccc(F)cc3c2-c2ccccc2)cc1` had a melting point of 302 to 304 °C.
In the case of `CN1C(C(=O)OC2CCCCC2)=C(O)c2ccccc2S1(=O)=O`, the melting point is 112 °C.
Take `O=C(O)CCCc1cc(-c2ccccc2)nc2ccccc12`: the melting point worked out at 125 °C.
Compound `Cc1ccc(C(=O)c2cc(CN(C)C)c(O)c(C(C)(C)C)c2)s1` registered a melting point of 119 to 120 °C.
The compound `O=C1NC(CCN2CCC(C(=O)c3ccc(F)cc3)CC2)Nc2ccccc21` (configuration not stated) displayed a melting point of 153 °C.
Compound `CCOC(=O)/C(=N\OC1CCCCCC1)c1csc(N)n1` gave a melting point of 107 to 108 °C.
In turn, `OC(CCCCCOc1ccccc1)c1cccc(OCc2ccc3ccccc3n2)c1` (configuration not stated) displayed a melting point of 83 to 84.5 °C.
On to `Nc1cc(NC(=O)c2cc3cc(F)ccc3n2Cc2cccc(F)c2)ccn1`, for which the melting point lay in the range of 217 to 218 °C.
The value for `CC1=C(c2ccnnc2)SCC(=O)N1` was 231 to 233 °C; that for `O=C1c2c(Cl)cccc2-n2cnc(C#Cc3ccccc3)c2[C@@H]2CCCN12` was 241 to 242 °C.
In turn, `CC(=O)Nc1c(C(=O)c2ccccc2)[nH]c2cc(F)ccc12` displayed a melting point of 144 to 145 °C.
In the case of `CC(C)(C)c1cc(C(C)(CCC(=O)O)c2ccc(O)c(C(C)(C)C)c2)ccc1O`, the melting point was found to be 155 °C.
The compound `COc1ccc2ccc(N3C(=O)c4ccccc4C3OC(=O)CCCC(C)C)nc2n1` (configuration not stated) displayed a melting point of 105 °C.
The compound `COc1cc(Nc2c(C#N)cnc3cc(-c4csc(CN5CCOCC5)c4)ccc23)c(Cl)cc1C` gave a melting point of 168 to 170 °C.
`CCc1nccc2c(CC(=O)O)cccc12` showed a melting point of 166 to 181 °C.
As for `O=C(O)c1cc(COC2CCCCO2)ccc1COC1CCCCO1` (configuration not stated), the melting point lay in the range of 107 to 108 °C.
Regarding `CC(=O)NC[C@H]1CN(c2ccc(N3CCC4(CC3)CS4)c(F)c2)C(=O)O1`, the melting point lay in the range of 152 to 154 °C.

A word on the melting point: it is the temperature, or range, at which the solid turns liquid.
